Experimental data taken from US6342219B1 (Board of Regents, The University of Texas System, priority 1999, dated 2002).

Legend:
VEGFR2 (KDR/Fc) = assay: Coprecipitation assay, VEGFR2/Fc; type: binding; details: 40 ng VEGF, 200 ng receptor/Fc
Procedure: 200 ng of soluble forms of VEGFR1 (Flt-1/Fc) or VEGFR2 (KDR/Fc, R&D Systems, Minneapolis, Minn.) were added for a total volume of 50 μl and incubated for 2 hrs. The receptor/Fc constructs were precipitated using Protein A-sepharose beads and the resulting precipitate was washed 4 times with binding buffer.
Reducing sample buffer was added to the pellet and supernatant of each reaction and both were analyzed by 12% SDS-PAGE and transferred to PVDF membranes. […] The soluble receptor/Fc constructs were also detected by using peroxidase-conjugated goat anti-human Fc (Kirkegaard & Perry Laboratories, Inc.)
The receptor/Fc constructs were precipitated by incubation with Protein A sepharose beads. The precipitate was washed and resuspended in reducing sample buffer and separated by 12% SDS-PAGE and transferred to PVDF.

[1] = tested on: cancer patients having progressive disease; details: patients having progressive disease before treatment; cited from earlier work
VEGFR1 = VEGFR1 (Homo sapiens, UniProt P17948); details: read-out: Kd of VEGF binding to VEGFR1; Terman et al., 1994; cited from earlier work
VEGFR1, sequence (P17948 27-1338): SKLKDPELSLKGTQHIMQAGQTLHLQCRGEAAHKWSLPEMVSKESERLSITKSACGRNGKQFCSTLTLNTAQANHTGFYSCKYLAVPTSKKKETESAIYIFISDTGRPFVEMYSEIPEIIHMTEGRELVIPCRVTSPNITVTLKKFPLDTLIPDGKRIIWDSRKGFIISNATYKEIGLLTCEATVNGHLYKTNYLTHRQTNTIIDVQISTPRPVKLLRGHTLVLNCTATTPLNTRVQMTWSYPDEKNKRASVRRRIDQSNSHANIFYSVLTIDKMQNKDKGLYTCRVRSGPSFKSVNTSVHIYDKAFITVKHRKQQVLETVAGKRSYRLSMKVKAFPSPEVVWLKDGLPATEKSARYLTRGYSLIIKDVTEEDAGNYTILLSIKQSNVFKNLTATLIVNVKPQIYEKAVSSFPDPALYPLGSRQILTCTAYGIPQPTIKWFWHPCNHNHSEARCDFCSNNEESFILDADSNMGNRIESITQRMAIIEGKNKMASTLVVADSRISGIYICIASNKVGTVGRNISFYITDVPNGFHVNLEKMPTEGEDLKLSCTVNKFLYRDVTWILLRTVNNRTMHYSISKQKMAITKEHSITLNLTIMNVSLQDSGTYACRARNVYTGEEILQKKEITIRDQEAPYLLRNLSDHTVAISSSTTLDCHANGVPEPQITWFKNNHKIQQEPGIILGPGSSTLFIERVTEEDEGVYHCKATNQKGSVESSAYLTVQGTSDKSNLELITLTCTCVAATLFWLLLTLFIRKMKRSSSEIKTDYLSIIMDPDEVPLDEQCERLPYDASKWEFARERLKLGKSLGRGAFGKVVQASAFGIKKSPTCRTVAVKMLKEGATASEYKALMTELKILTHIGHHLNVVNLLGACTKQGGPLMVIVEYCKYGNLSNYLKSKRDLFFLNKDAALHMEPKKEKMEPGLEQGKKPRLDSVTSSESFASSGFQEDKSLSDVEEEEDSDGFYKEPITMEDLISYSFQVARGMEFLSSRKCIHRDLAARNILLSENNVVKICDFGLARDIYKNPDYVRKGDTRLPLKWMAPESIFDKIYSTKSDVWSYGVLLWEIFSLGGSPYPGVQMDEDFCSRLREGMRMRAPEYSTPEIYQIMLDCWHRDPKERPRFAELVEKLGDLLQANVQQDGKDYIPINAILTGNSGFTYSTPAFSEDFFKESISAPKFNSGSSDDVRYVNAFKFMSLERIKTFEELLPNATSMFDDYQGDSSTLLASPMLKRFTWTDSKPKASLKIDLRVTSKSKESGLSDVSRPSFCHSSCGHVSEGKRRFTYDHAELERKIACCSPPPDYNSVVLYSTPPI

[2] = Blood clearance of radioiodinated 2C3-GUS; type: in vivo; details: mice, intravenous injection, 125I-labelled
Excerpt: 2C3-GUS was radioiodinated with ^125I to a specific activity of 5×10^6 cpm/μg.

β-glucuronidase (GUS) = target: T1, β-glucuronidase (GUS) (Escherichia coli, UniProt P05804); assay: Enzymatic activity of the GUS portion; type: biochemical, E. coli
T1 construct: made in house; host or cells: E. coli M15 cells
T1 sequence (P05804 whole entry): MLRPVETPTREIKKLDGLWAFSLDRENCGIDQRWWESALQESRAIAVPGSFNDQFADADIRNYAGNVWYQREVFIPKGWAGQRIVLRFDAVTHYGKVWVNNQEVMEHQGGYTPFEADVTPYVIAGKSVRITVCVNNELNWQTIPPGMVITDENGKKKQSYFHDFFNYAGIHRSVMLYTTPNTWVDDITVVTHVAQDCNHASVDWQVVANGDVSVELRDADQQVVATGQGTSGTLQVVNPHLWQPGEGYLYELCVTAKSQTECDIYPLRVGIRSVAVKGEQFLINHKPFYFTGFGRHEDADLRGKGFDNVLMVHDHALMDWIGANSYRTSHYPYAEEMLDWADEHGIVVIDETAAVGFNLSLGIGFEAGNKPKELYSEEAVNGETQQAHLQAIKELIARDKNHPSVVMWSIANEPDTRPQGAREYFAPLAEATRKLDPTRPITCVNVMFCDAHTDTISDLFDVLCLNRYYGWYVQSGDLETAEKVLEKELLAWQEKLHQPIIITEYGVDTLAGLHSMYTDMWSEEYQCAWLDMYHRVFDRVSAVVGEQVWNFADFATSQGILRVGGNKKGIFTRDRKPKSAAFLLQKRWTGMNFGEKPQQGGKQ
Excerpt: The 6-His GUS was pure based upon SDS-PAGE, where it ran as a single band of 75 kDa band. On gel filtration columns, the 6-His GUS runs as a tetramer of about 300 kDa.
The biological activity of each component of the 2C3-GUS conjugate was confirmed.

[3] = tested on: human NCI-H358 NSCLC tumors; type: in vivo, SCID mice

In the case of 2C3 F(ab′)2: F(ab′)2 of 2C3, the “Blocking of VEGF binding to VEGFR2/Fc in solution” value (VEGFR2 (KDR/Fc)) is reported as “blocked”.
For `NC(=O)c1nnn(Cc2cc(Cl)c(C(=O)c3ccc(Cl)cc3)c(Cl)c2)c1N` [CAI, carboxyamidotriazole], the “Disease stabilization, share of cancer patients” value [1] is given as 49%.
In the case of VEGF, the Kd (VEGFR1) is given as 0.015 to 0.1 nM.
In the case of 2C3-GUS [Clone 2C3-GUS], the “t½ α” value [2] is reported as “about 6 hours”, the “t½ β” value [2] is reported as “about 25 hours” and the “Enzymatic activity of the GUS portion” value (β-glucuronidase (GUS)) is reported as “retained enzymatic activity”. The “Localization after i.v. injection” value ([3]; SCID mice bearing subcutaneous NCI-H358) was “specifically localized to tumor vasculature and surrounding tumor stroma”, the “Staining of normal tissues” value ([3]; mouse, in vivo) was “unstained” and the “Time of maximal localization after injection” value ([3]; mouse, in vivo, sc) was 24 to 48 h.
